In article PMC10778198, “First-in-Human Dose-Escalation Study of the Novel Oral Depsipeptide Class I-Targeting HDAC Inhibitor Bocodepsin (OKI-179) in Patients with Advanced Solid Tumors” (Cancers, 2023):
Marks after values point to notes of the source that are not given here.

Tested on: patients with advanced solid tumors
Test: phase I dose escalation: safety, DLT, MTD, RP2D (CTCAE v. 5)
Assay type: in vivo
Conditions: for maximum tolerated dose (MTD): oral once daily
Source text: Subsequent dosing cohorts were enrolled using a standard 3 + 3 design.
If any patient in any cohort of three patients developed a DLT during cycle 1, an additional three patients were recruited to expand the cohort to up to six evaluable patients. If two or more patients in any expanded cohort developed a DLT, this dose was considered non-tolerated, and dose escalation was discontinued. The MTD was defined as the highest dose level for which no more than one of six patients experienced a DLT.
Patients were continuously evaluated for adverse events throughout the study using the Common Terminology Criteria of Adverse Events (CTCAE v. 5). The patients underwent a clinical history and physical examination, an ECOG PS, a complete blood count (CBCs), chemistry, coagulation studies, urinalysis, a serum pregnancy test (as applicable), a triplicate ECG, an ophthalmology examination, and baseline tumor assessment at screening. During cycle 1, weekly history and physical examination, CBC, chemistry, coagulation parameters, urinalysis, and triplicate ECGs were performed; in subsequent cycles, weekly labs were limited to a CBC. Repeat ophthalmology examinations were performed at cycle 3, day 1, and at the end of treatment. Repeat tumor assessment was performed every 2 cycles (6 weeks) in accordance with RECIST 1.1.

[1] = All Continuous Patients (N=8), G3
[2] = All Continuous Patients (N=8), G4

Compound: CC(C)[C@H](N)C(=O)SCC/C=C/[C@@H]1CC(=O)NCc2nc(cs2)C(=O)NC(C)(C)C(=O)N[C@@H](C(C)C)C(=O)O1 [OKI-179, Bocodepsin]
- TEAE: Headache [1]: 0 N (%)
- TEAE: Nausea [1]: 0 N (%)
- TEAE: Pain [1]: 0 N (%)
- TEAE: Platelet count decreased [1]: 0 N (%)
- TEAE: Abdominal pain [2]: 0 N (%)
- TEAE: Anemia [2]: 0 N (%)
- TEAE: Constipation [2]: 0 N (%)
- TEAE: Decreased appetite [2]: 0 N (%)
- TEAE: Diarrhea [2]: 0 N (%)
- TEAE: Dyspepsia [2]: 0 N (%)
- TEAE: ECG QT prolonged [2]: 0 N (%)
- TEAE: Fatigue [2]: 0 N (%)
- TEAE: Headache [2]: 0 N (%)
- TEAE: Nausea [2]: 0 N (%)
- TEAE: Pain [2]: 0 N (%)
- TEAE: Platelet count decreased [2]: 2 (25) N (%)
- DLTs (Cohort 1, 30 mg, Schedule 1 (4:3), 1 patient): 0 patients
- DLTs (Cohort 2, 60 mg, Schedule 1 (4:3), 2 patients): 0 patients
- DLTs (Cohort 3, 90 mg, Schedule 1 (4:3), 1 patient): 0 patients
- DLTs (Cohort 4, 120 mg, Schedule 1 (4:3), 1 patient): 0 patients
- DLTs (Cohort 5, 150 mg, Schedule 1 (4:3), 1 patient): 0 patients
- DLTs (Cohort 6, 180 mg, Schedule 1 (4:3), 1 patient): 0 patients
- DLTs (Cohort 7, 210 mg, Schedule 1 (4:3), 1 patient): 0 patients
- DLTs (Cohort 8, 270 mg, Schedule 1 (4:3), 3 patients): 0 patients
- DLTs (Cohort 9, 350 mg, Schedule 1 (4:3), 3 patients): 0 patients
- DLTs (Cohort 11, 300 mg, Schedule 2 (continuous), 2 patients, grade 2 and grade 4 thrombocytopenia): 2 * patients
- DLTs (Cohort 12, 200 mg, Schedule 2 (continuous), 6 patients): 0 patients
- TEAE: Anemia (all patients (n = 34)): 35.3%
- TEAE: Fatigue (all patients (n = 34)): 47.1%
- TEAE: Nausea (all patients (n = 34)): 70.6%
- TEAE: anorexia (all patients (n = 34)): 32.4%
- TEAE: decreased platelet count (thrombocytopenia) (all patients (n = 34)): 41.2%
- grade > 3 treatment-related TEAE: anemia (all patients (n = 34)): 11.8%
- grade > 3 treatment-related TEAE: anorexia (all patients (n = 34)): 5.9%
- grade > 3 treatment-related TEAE: decreased platelet count (all patients (n = 34)): 5.9%
- grade > 3 treatment-related TEAE: prolonged QT interval on ECG (all patients (n = 34)): 5.9%
- number of grade > 3 treatment-related TEAEs (all patients (n = 34)): 15
- patients with Grade > 3 TEAEs (all patients (n = 34)): 18 (52.9%) patients (%)
- patients with a treatment-related TEAE (all patients (n = 34)): 33 (97.1%) patients (%)
- patients with grade > 3 treatment-related TEAEs (all patients (n = 34)): nine
- patients with treatment-related TEAEs leading to dose holding or reduction (all patients (n = 34)): Eleven
- patients with serious adverse events (SAEs) (all patients (n = 34), one treatment-related (grade 3 nausea)): 14 (41.2%) patients (%)
- TEAE: Constipation (continuous dosing cohort): 75%
- TEAE: Diarrhea (continuous dosing cohort): 38%
- TEAE: Fatigue (continuous dosing cohort): 50%
- TEAE: Headache (continuous dosing cohort): 38%
- TEAE: Nausea (continuous dosing cohort): 75%
- TEAE: platelet count decrease (continuous dosing cohort): 50%
- grade 4 thrombocytopenia events (continuous dosing cohort, two events, in the 300 mg cohort): 25%
- TEAE: Abdominal pain (continuous, 200 mg (N=6), G1): 1 (17) N (%)
- TEAE: Anemia (continuous, 200 mg (N=6), G1): 0 N (%)
- TEAE: Constipation (continuous, 200 mg (N=6), G1): 2 (33) N (%)
- TEAE: Decreased appetite (continuous, 200 mg (N=6), G1): 1 (17) N (%)
- TEAE: Diarrhea (continuous, 200 mg (N=6), G1): 2 (33) N (%)
- TEAE: Dyspepsia (continuous, 200 mg (N=6), G1): 1 (17) N (%)
- TEAE: ECG QT prolonged (continuous, 200 mg (N=6), G1): 1 (17) N (%)
- TEAE: Fatigue (continuous, 200 mg (N=6), G1): 1 (17) N (%)
- TEAE: Headache (continuous, 200 mg (N=6), G1): 2 (33) N (%)
- TEAE: Nausea (continuous, 200 mg (N=6), G1): 2 (33) N (%)
- TEAE: Pain (continuous, 200 mg (N=6), G1): 1 (17) N (%)
- TEAE: Platelet count decreased (continuous, 200 mg (N=6), G1): 1 (17) N (%)
- TEAE: Abdominal pain (continuous, 200 mg (N=6), G2): 1 (17) N (%)
- TEAE: Anemia (continuous, 200 mg (N=6), G2): 1 (17) N (%)
- TEAE: Constipation (continuous, 200 mg (N=6), G2): 3 (50) N (%)
- TEAE: Decreased appetite (continuous, 200 mg (N=6), G2): 0 N (%)
- TEAE: Diarrhea (continuous, 200 mg (N=6), G2): 0 N (%)
- TEAE: Dyspepsia (continuous, 200 mg (N=6), G2): 1 (17) N (%)
- TEAE: ECG QT prolonged (continuous, 200 mg (N=6), G2): 1 (17) N (%)
- TEAE: Fatigue (continuous, 200 mg (N=6), G2): 2 (33) N (%)
- TEAE: Headache (continuous, 200 mg (N=6), G2): 0 N (%)
- TEAE: Nausea (continuous, 200 mg (N=6), G2): 2 (33) N (%)
- TEAE: Pain (continuous, 200 mg (N=6), G2): 1 (17) N (%)
- TEAE: Platelet count decreased (continuous, 200 mg (N=6), G2): 1 (17) N (%)
- TEAE: Abdominal pain (continuous, 200 mg (N=6), G3): 0 N (%)
- TEAE: Anemia (continuous, 200 mg (N=6), G3): 0 N (%)
- TEAE: Constipation (continuous, 200 mg (N=6), G3): 0 N (%)
- TEAE: Decreased appetite (continuous, 200 mg (N=6), G3): 0 N (%)
- TEAE: Diarrhea (continuous, 200 mg (N=6), G3): 0 N (%)
- TEAE: Dyspepsia (continuous, 200 mg (N=6), G3): 0 N (%)
- TEAE: ECG QT prolonged (continuous, 200 mg (N=6), G3): 0 N (%)
- TEAE: Fatigue (continuous, 200 mg (N=6), G3): 0 N (%)
- TEAE: Headache (continuous, 200 mg (N=6), G3): 0 N (%)
- TEAE: Nausea (continuous, 200 mg (N=6), G3): 0 N (%)
- TEAE: Pain (continuous, 200 mg (N=6), G3): 0 N (%)
- TEAE: Platelet count decreased (continuous, 200 mg (N=6), G3): 0 N (%)
- TEAE: Abdominal pain (continuous, 200 mg (N=6), G4): 0 N (%)
- TEAE: Anemia (continuous, 200 mg (N=6), G4): 0 N (%)
- TEAE: Constipation (continuous, 200 mg (N=6), G4): 0 N (%)
- TEAE: Decreased appetite (continuous, 200 mg (N=6), G4): 0 N (%)
- TEAE: Diarrhea (continuous, 200 mg (N=6), G4): 0 N (%)
- TEAE: Dyspepsia (continuous, 200 mg (N=6), G4): 0 N (%)
- TEAE: ECG QT prolonged (continuous, 200 mg (N=6), G4): 0 N (%)
- TEAE: Fatigue (continuous, 200 mg (N=6), G4): 0 N (%)
- TEAE: Headache (continuous, 200 mg (N=6), G4): 0 N (%)
- TEAE: Nausea (continuous, 200 mg (N=6), G4): 0 N (%)
- TEAE: Pain (continuous, 200 mg (N=6), G4): 0 N (%)
- TEAE: Platelet count decreased (continuous, 200 mg (N=6), G4): 0 N (%)
- TEAE: Abdominal pain (continuous, 300 mg (N=2), G1): 0 N (%)
- TEAE: Anemia (continuous, 300 mg (N=2), G1): 0 N (%)
- TEAE: Constipation (continuous, 300 mg (N=2), G1): 1 (50) N (%)
- TEAE: Decreased appetite (continuous, 300 mg (N=2), G1): 0 N (%)
- TEAE: Diarrhea (continuous, 300 mg (N=2), G1): 1 (50) N (%)
- TEAE: Dyspepsia (continuous, 300 mg (N=2), G1): 0 N (%)
- TEAE: ECG QT prolonged (continuous, 300 mg (N=2), G1): 0 N (%)
- TEAE: Fatigue (continuous, 300 mg (N=2), G1): 0 N (%)
- TEAE: Headache (continuous, 300 mg (N=2), G1): 1 (50) N (%)
- TEAE: Nausea (continuous, 300 mg (N=2), G1): 2 (100) N (%)
- TEAE: Pain (continuous, 300 mg (N=2), G1): 0 N (%)
- TEAE: Platelet count decreased (continuous, 300 mg (N=2), G1): 0 N (%)
- TEAE: Abdominal pain (continuous, 300 mg (N=2), G2): 0 N (%)
- TEAE: Anemia (continuous, 300 mg (N=2), G2): 1 (50) N (%)
- TEAE: Constipation (continuous, 300 mg (N=2), G2): 0 N (%)
- TEAE: Decreased appetite (continuous, 300 mg (N=2), G2): 0 N (%)
- TEAE: Diarrhea (continuous, 300 mg (N=2), G2): 0 N (%)
- TEAE: Dyspepsia (continuous, 300 mg (N=2), G2): 0 N (%)
- TEAE: ECG QT prolonged (continuous, 300 mg (N=2), G2): 0 N (%)
- TEAE: Fatigue (continuous, 300 mg (N=2), G2): 0 N (%)
- TEAE: Headache (continuous, 300 mg (N=2), G2): 0 N (%)
- TEAE: Nausea (continuous, 300 mg (N=2), G2): 0 N (%)
- TEAE: Pain (continuous, 300 mg (N=2), G2): 0 N (%)
- TEAE: Platelet count decreased (continuous, 300 mg (N=2), G2): 0 N (%)
- TEAE: Abdominal pain (continuous, 300 mg (N=2), G3): 0 N (%)
- TEAE: Anemia (continuous, 300 mg (N=2), G3): 0 N (%)
- TEAE: Constipation (continuous, 300 mg (N=2), G3): 0 N (%)
- TEAE: Decreased appetite (continuous, 300 mg (N=2), G3): 1 (50) N (%)
- TEAE: Diarrhea (continuous, 300 mg (N=2), G3): 0 N (%)
- TEAE: Dyspepsia (continuous, 300 mg (N=2), G3): 0 N (%)
- TEAE: ECG QT prolonged (continuous, 300 mg (N=2), G3): 0 N (%)
- TEAE: Fatigue (continuous, 300 mg (N=2), G3): 1 (50) N (%)
- TEAE: Headache (continuous, 300 mg (N=2), G3): 0 N (%)
- TEAE: Nausea (continuous, 300 mg (N=2), G3): 0 N (%)
- TEAE: Pain (continuous, 300 mg (N=2), G3): 0 N (%)
- TEAE: Platelet count decreased (continuous, 300 mg (N=2), G3): 0 N (%)
- TEAE: Abdominal pain (continuous, 300 mg (N=2), G4): 0 N (%)
- TEAE: Anemia (continuous, 300 mg (N=2), G4): 0 N (%)
- TEAE: Constipation (continuous, 300 mg (N=2), G4): 0 N (%)
- TEAE: Decreased appetite (continuous, 300 mg (N=2), G4): 0 N (%)
- TEAE: Diarrhea (continuous, 300 mg (N=2), G4): 0 N (%)
- TEAE: Dyspepsia (continuous, 300 mg (N=2), G4): 0 N (%)
- TEAE: ECG QT prolonged (continuous, 300 mg (N=2), G4): 0 N (%)
- TEAE: Fatigue (continuous, 300 mg (N=2), G4): 0 N (%)
- TEAE: Headache (continuous, 300 mg (N=2), G4): 0 N (%)
- TEAE: Nausea (continuous, 300 mg (N=2), G4): 0 N (%)
- TEAE: Pain (continuous, 300 mg (N=2), G4): 0 N (%)
- TEAE: Platelet count decreased (continuous, 300 mg (N=2), G4): 2 (100) N (%)
- recommended phase 2 dose (RP2D) (daily on a 4:3 schedule): 300 mg
- maximum tolerated dose (MTD) (4:3 intermittent dosing): 450 mg
- maximum tolerated dose (MTD) (continuous dosing): 200 mg
- patients with grade 1 or 2 QT prolongation (whole study): four
- patients with grade 3 QT prolongation (whole study): three
